From article PMC11303563 (Communications Medicine, 2024)
“And” between values parts separate entries of the source, which are not always exact repeats. Identical values can stand only once.

Legend:
[1] = tested on: high-fat diet (HFD)-induced obesity model mice; test: Body weight of high-fat diet-induced obesity model mice; format: in vivo, C57BL/6J mice; design: Body weight, Mean Diff. ND vs. treated: unit not given here; settings: for Body weight, 95.00% CI of diff. ND vs. treated / Body weight, Mean Diff. ND vs. treated: ND group as comparator; for Body weight, 95.00% CI of diff. ND vs. treated / Body weight, Mean Diff. ND vs. treated / Body weight, 95.00% CI of diff. Vehicle vs. treated / Body weight, Mean Diff. Vehicle vs. treated: Tukey's multiple comparisons test; for Body weight, Mean Diff. Vehicle vs. treated / Body weight, group mean (Fig. 3a) / Body weight, individual mice (Fig. 3a): in g (unit assumed); for Body weight, group mean (Fig. 3a): n 10
Description: The injection was given 6 h after light on. Food consumption and body weights were measured weekly. Food and water were provided to the animals ad libitum. The animals were treated according to the guidelines of Nagoya University, and all experimental procedures were approved by the Animal Experiment Committee of Nagoya University (A210715-003).
(§1) Epididymal adipose tissue was weighed.
(§2) Fig. 3 Effects of intraperitoneal injection of TH analogs on body weight and deposition of visceral fat. […] After three weeks of injection, body weight (a), and weight of the epididymal adipose tissue (b) were measured.

[2] = tested on: THR-regulated genes and lipid metabolism-related genes in the liver
[3] = tested on: high-fat diet (HFD)-induced obesity model mice; test: Serum lipid analysis (total cholesterol, triglycerides) in HFD mice; format: in vivo, C57BL/6J mice; design: Serum TC (Fig. 4a), individual mouse values / Serum TG (Fig. 4b), individual mouse values / Serum TC (Fig. 4a), Mean Diff. ND vs. treatment (Tukey) / Serum TC (Fig. 4a), Mean Diff. Vehicle vs. treatment (Tukey) / Serum TC (Fig. 4a), group mean (Mean 2) / Mean Diff., ND vs. treated (Fig. 4b) / Mean Diff., Vehicle vs. treated (Fig. 4b) / Mean (Fig. 4b): unit not given here; settings: for Serum TC (Fig. 4a), group mean (Mean 2) / Mean (Fig. 4b): n=10; for Serum TC (Fig. 4a), Mean Diff. ND vs. treatment (Tukey): ND minus treated; for Serum TC (Fig. 4a), Mean Diff. Vehicle vs. treatment (Tukey): Vehicle minus treated; for Mean Diff., ND vs. treated (Fig. 4b) / Mean Diff., Vehicle vs. treated (Fig. 4b): Tukey's multiple comparisons test; for Mean (Fig. 4b): group mean
Description: Fig. 4 Effects of TH analogs on the accumulation of lipids in mice. […] After 3 weeks of injection, serum and liver tissues were collected, and the amount of serum cholesterol (a), serum triglycerides (b), liver cholesterol (c), liver triglycerides (d), and liver total lipids (e) were measured.

[4] = tested on: high-fat diet (HFD)-induced obesity model mice; test: Weight of epididymal adipose tissue (visceral fat) in HFD mice; format: in vivo, C57BL/6J mice; settings: for Fig. 3b (weight of epididymal adipose tissue), group mean (Mean 2) / Epididymal adipose weight, individual mice (Fig. 3b) / weight of the epididymal adipose tissue vs vehicle: HFD mice; for Fig. 3b (weight of epididymal adipose tissue), group mean (Mean 2): n=10; for Fig. 3b (weight of epididymal adipose tissue), group mean (Mean 2) / Fig. 3b (weight of epididymal adipose tissue), Mean Diff. ND vs. treatment (Tukey) / Fig. 3b (weight of epididymal adipose tissue), Mean Diff. Vehicle vs. treatment (Tukey) / Epididymal adipose weight, individual mice (Fig. 3b): in mg (unit assumed); for Fig. 3b (weight of epididymal adipose tissue), Mean Diff. ND vs. treatment (Tukey): ND minus treated; for Fig. 3b (weight of epididymal adipose tissue), Mean Diff. Vehicle vs. treatment (Tukey): Vehicle minus treated; for weight of the epididymal adipose tissue vs vehicle: 3 weeks
Description: as §1, §2

[5] = tested on: high-fat diet (HFD)-induced obesity model mice; test: Oil Red O staining of the liver section; format: in vivo, C57BL/6J mice; settings: i.p. 1 µmol/kg·day, 3 weeks
Description: 20 µm sections were prepared from frozen liver tissues using Cryostat (CM3050 S, Leica). Sections were affixed to silane-coated glass slides, dried at room temperature, and stored at −80 °C until use. Before staining, sections were fixed with 1% PFA/1 × PBS, pH 7.4 (Gibco) for 5 min, immersed in 1 × PBS for 5 min, distilled water for 5 min, and 60% 2-propanol solution for 1 min. Oil Red O staining solution was prepared by mixing 0.36 g of Oil Red O (Sigma) with 120 mL of 2-propanol and 80 mL of distilled water, allowing the solution to stand at room temperature for 1 h, then filtering the solution and leaving it overnight at 37 °C. Sections were immersed in the Oil Red O staining solution at 37 °C for 15 min, rinsed in 60% 2-propanol for 1 min, and in distilled water for 1 min. Sections were counterstained with Meyer’s hematoxylin. […] The area of red-stained fat droplets was quantified using Image J (National Institutes of Health), and the percentage of the stained area in the total image area was calculated. Nine different parts in three consecutive sections per mouse were analyzed.
Fig. 5 Oil Red O staining of the liver section of mice treated with TH analogs. […] After three weeks of injection, liver tissues were collected, frozen sections were prepared, and subjected to Oil Red O staining (a). Stained areas were quantified and normalized to the total image area. […]

[6] = In vitro blood-brain barrier permeability assay (BBB kit RBT-24H); format: in vitro ADME, rat; settings: rat, 10 μM on luminal side, read-out: apparent permeability (Papp)
Description: Therefore, we tested BBB transparency in vitro using the BBB kit RBT-24H (PharmaCo-Cell)[35]. […] Blood-brain barrier permeability assay The blood-brain barrier (BBB) transparency of TH analogs was assessed in vitro using RBT-24H (PharmaCo-Cell)[5] according to the manufacturer 's protocol. […] After 30 min, the assay buffer in the wells mimicking the abluminal side was collected, and the concentration of the compounds was measured using liquid chromatography-mass spectrometry (LC-MS). […] These tips were preconditioned with 20 μL of acetonitrile and 20 μL of 0.1% TFA in purified water. 100 μL of the samples were loaded onto the preconditioned tips, washed with 200 μL of DW, and then eluted with 10 μL of acetonitrile. Triazine (1% vol/vol) was added to the eluent as an internal standard. […] 3 μm; Imtakt, Kyoto, Japan). All the experiments were performed using an Ultimate 3000 UHPLC system coupled with a Q Exactive Plus Orbitrap mass spectrometer (Thermo Fisher Scientific). […] Data were shown as mean ± standard deviation (n=3).

[7] = HFD mice, i.p. 1 µmol/kg day, 3 weeks
[8] = HFD mice, 1 μmol/kg day, RT-qPCR, reference gene Rps18
[9] = liver gene expression, 1µmol dose group vs. Vehicle

O=C(O)Cc1cc(C(F)(F)F)c(Cc2ccc(O)c3ccccc23)c(C(F)(F)F)c1 [ZTA-261]
Body weight, 95.00% CI of diff. ND vs. treated ([1]; 0.1 µmol dose group): -17.31 to -8.599 | Body weight, Mean Diff. ND vs. treated ([1]; 0.1 µmol dose group): -12.95 | Body weight, 95.00% CI of diff. Vehicle vs. treated ([1]; 0.1 µmol dose group): -2.779 to 5.659 | Body weight, Mean Diff. Vehicle vs. treated ([1]; 0.1 µmol dose group): 1.44 | Body weight, 95.00% CI of diff. ND vs. treated ([1]; 1 µmol dose group): -11.31 to -2.596 | Body weight, Mean Diff. ND vs. treated ([1]; 1 µmol dose group): -6.951 | Body weight, 95.00% CI of diff. Vehicle vs. treated ([1]; 1 µmol dose group): 3.224 to 11.66 | Body weight, Mean Diff. Vehicle vs. treated ([1]; 1 µmol dose group): 7.443 | Body weight, group mean (Fig. 3a) ([1]; HFD mice, 0.1 µmol dose group): 41.47 | Body weight, individual mice (Fig. 3a) ([1]; HFD mice, 0.1 µmol dose group): 40.29 and 36.71 and 35.46 and 47.2 and 43.74 and 41.64 and 46.66 and 44.04 and 36.76 and 42.23 | Body weight, group mean (Fig. 3a) ([1]; HFD mice, 1 µmol dose group): 35.47 | Body weight, individual mice (Fig. 3a) ([1]; HFD mice, 1 µmol dose group): 32.91 and 31.68 and 37.61 and 39.1 and 35.68 and 36.65 and 37.77 and 35.13 and 35.26 | body weight vs vehicle (in words) ([1]; HFD mice, i.p. 0.1 µmol/kg day, 3 weeks): did not significantly reduce body weight | decrease of body weight compared to vehicle [1, 7]: ~ 20% | Cyp7a1 expression in the liver, individual animal values ([2]; 1µmol, one value per animal): 0.6381 and 0.6001 and 0.9755 and 0.7051 and 0.7377 and 0.8699 and 1.225 and 1.875 and 1.688 and 1.407 | Dio1 expression in the liver, individual animal values ([2]; 1µmol, one value per animal): 2.348 and 0.8674 and 3.4594 and 3.712 and 3.243 and 4.342 and 3.767 and 2.33 and 3.714 and 5.338 | Ldlr expression in the liver, individual animal values ([2]; 1µmol, one value per animal): 0.4288 and 1.672 and 1.891 and 1.348 and 1.361 and 2.264 and 2.662 and 1.059 and 1.183 and 1.422 | Me1 expression in the liver, individual animal values ([2]; 1µmol, one value per animal): 2.009 and 0.7713 and 1.636 and 2.32 and 2.026 and 3.023 and 3.213 and 2.688 and 3.436 and 4.664 | Pnpla2 expression in the liver, individual animal values ([2]; 1µmol, one value per animal): 1.268 and 0.9327 and 2.591 and 7.772 and 2.012 and 5.634 and 5.017 and 1.649 and 3.705 and 2.077 | Srebp1c expression in the liver, individual animal values ([2]; 1µmol, one value per animal): 0.1054 and 0.05247 and 0.1951 and 0.3686 and 0.2695 and 0.5078 and 0.5858 and 0.293 and 0.5057 and 0.124 | Thrsp expression in the liver, individual animal values ([2]; 1µmol, one value per animal): 1.26 and 1.164 and 1.998 and 1.521 and 1.182 and 1.374 and 1.7691 and 1.941 and 1.759 and 2.356 | liver expression of Cyp7a1 vs vehicle [2, 8]: not significantly different | liver expression of Dio1 vs vehicle [2, 8]: significantly upregulated | liver expression of Ldlr vs vehicle [2, 8]: not significantly different | liver expression of Me1 vs vehicle [2, 8]: significantly upregulated | liver expression of Pnpla2 vs vehicle [2, 8]: significantly higher | liver expression of Srebp1c vs vehicle [2, 8]: Although not statistically significant, the ZTA-261-treated group showed decreased Srebp1c expression | liver expression of Thrsp vs vehicle [2, 8]: increased | Pnpla2, Dunn's multiple comparisons test, Mean rank diff. (Vehicle vs. compound) [2, 9]: -17.5 | Srebp1c, Dunn's multiple comparisons test, Mean rank diff. (Vehicle vs. compound) [2, 9]: 13.17 | Pnpla2, Mean rank of treatment group (Mean rank 2) ([2]; liver gene expression, 1µmol dose group, Vehicle mean rank 8): 25.5 | Srebp1c, Mean rank of treatment group (Mean rank 2) ([2]; liver gene expression, 1µmol dose group, Vehicle mean rank […]): 20.5 | Serum TC (Fig. 4a), individual mouse values ([3]; 0.1 µmol, HFD mice): 170.917 and 174.042 and 146.958 and 171.875 and 171.042 and 164.292 and 178.75 and 197.208 and 153.333 and 201.333 | Serum TG (Fig. 4b), individual mouse values ([3]; 0.1 µmol, HFD mice): 76.25 and 92.083 and 101.25 and 78.417 and 57.583 and 89.25 and 104.25 and 84.25 and 81.75 | Serum TC (Fig. 4a), group mean (Mean 2) ([3]; 0.1 µmol, HFD mice): 173 | Serum TC (Fig. 4a), Mean Diff. ND vs. treatment (Tukey) ([3]; 0.1 µmol): 6.447 | Serum TC (Fig. 4a), Mean Diff. Vehicle vs. treatment (Tukey) ([3]; 0.1 µmol): 77.09 | Serum TC (Fig. 4a), individual mouse values ([3]; 1 µmol, HFD mice): 100.083 and 106.125 and 141.958 and 148.125 and 147.292 and 139.708 and 132.5 and 117.5 and 94.583 and 113 | Serum TG (Fig. 4b), individual mouse values ([3]; 1 µmol, HFD mice): 52.917 and 53.75 and 90.417 and 88.75 and 67.917 and 87.917 and 73.75 and 69.583 and 82.083 and 85.417 | Serum TC (Fig. 4a), group mean (Mean 2) ([3]; 1 µmol, HFD mice): 124.1 | Serum TC (Fig. 4a), Mean Diff. ND vs. treatment (Tukey) ([3]; 1 µmol): 55.33 | Serum TC (Fig. 4a), Mean Diff. Vehicle vs. treatment (Tukey) ([3]; 1 µmol): 126 | Mean Diff., ND vs. treated (Fig. 4b) ([3]; ND minus 0.1 µmol group): 62.42 | Mean Diff., ND vs. treated (Fig. 4b) ([3]; ND minus 1 µmol group): 71.52 | Mean Diff., Vehicle vs. treated (Fig. 4b) ([3]; Vehicle minus 0.1 µmol group): 31.43 | Mean Diff., Vehicle vs. treated (Fig. 4b) ([3]; Vehicle minus 1 µmol group): 40.53 | Mean (Fig. 4b) ([3]; 0.1 µmol, HFD mice): 84.35 | Mean (Fig. 4b) ([3]; 1 µmol, HFD mice): 75.25 | serum triglyceride level vs vehicle [3, 7]: decreased | Fig. 3b (weight of epididymal adipose tissue), group mean (Mean 2) ([4]; 0.1 µmol): 2650 | Fig. 3b (weight of epididymal adipose tissue), Mean Diff. ND vs. treatment (Tukey) ([4]; 0.1 µmol): -1966 | Fig. 3b (weight of epididymal adipose tissue), Mean Diff. Vehicle vs. treatment (Tukey) ([4]; 0.1 µmol): 208.4 | Fig. 3b (weight of epididymal adipose tissue), group mean (Mean 2) ([4]; 1 µmol): 1679 | Fig. 3b (weight of epididymal adipose tissue), Mean Diff. ND vs. treatment (Tukey) ([4]; 1 µmol): -996 | Fig. 3b (weight of epididymal adipose tissue), Mean Diff. Vehicle vs. treatment (Tukey) ([4]; 1 µmol): 1179 | Epididymal adipose weight, individual mice (Fig. 3b) ([4]; 0.1 µmol dose group): 2776.2 and 2045.1 and 1929.4 and 2510.8 and 2876.4 and 3044.5 and 3312.5 and 2871.5 and 2180.4 and 2949.5 | Epididymal adipose weight, individual mice (Fig. 3b) ([4]; 1 µmol dose group): 1625 and 1387 and 1309.2 and 1666.6 and 1860.1 and 1033.5 and 2042 and 1824.7 and 1973.2 and 2072 | weight of the epididymal adipose tissue vs vehicle ([4]; i.p. 0.1 µmol/kg day): did not show any obvious effect | weight of the epididymal adipose tissue vs vehicle ([4]; i.p. 1 µmol/kg day): decreased significantly | Oil Red O-positive area in liver sections vs vehicle [5]: significantly reduced | Papp at 30 min, 10 µM [6]: 7.28 ± 2.55 ×10⁻⁶ cm/s
